Measured values reported in publication PMC12713093, “Hepatitis E Virus ORF1 Polyprotein Harbors a Pocket‐Like Cavity That Is Vital for Virus Replication and Represents a Novel Antiviral Target” (Advanced Science, 2025).

Target: T1, X-RdRp protein (HEV ORF1 X to RdRp domains, forming the 'pocket-like' cavity, PC) (Hepatitis E virus US2, UniProt Q9YLR1)
T1 construct: X-RdRp fragment of ORF1 polyprotein (X 850-998, Hel 1002-1279, RdRp 1298-1765)
T1 sequence (Q9YLR1 793-1708): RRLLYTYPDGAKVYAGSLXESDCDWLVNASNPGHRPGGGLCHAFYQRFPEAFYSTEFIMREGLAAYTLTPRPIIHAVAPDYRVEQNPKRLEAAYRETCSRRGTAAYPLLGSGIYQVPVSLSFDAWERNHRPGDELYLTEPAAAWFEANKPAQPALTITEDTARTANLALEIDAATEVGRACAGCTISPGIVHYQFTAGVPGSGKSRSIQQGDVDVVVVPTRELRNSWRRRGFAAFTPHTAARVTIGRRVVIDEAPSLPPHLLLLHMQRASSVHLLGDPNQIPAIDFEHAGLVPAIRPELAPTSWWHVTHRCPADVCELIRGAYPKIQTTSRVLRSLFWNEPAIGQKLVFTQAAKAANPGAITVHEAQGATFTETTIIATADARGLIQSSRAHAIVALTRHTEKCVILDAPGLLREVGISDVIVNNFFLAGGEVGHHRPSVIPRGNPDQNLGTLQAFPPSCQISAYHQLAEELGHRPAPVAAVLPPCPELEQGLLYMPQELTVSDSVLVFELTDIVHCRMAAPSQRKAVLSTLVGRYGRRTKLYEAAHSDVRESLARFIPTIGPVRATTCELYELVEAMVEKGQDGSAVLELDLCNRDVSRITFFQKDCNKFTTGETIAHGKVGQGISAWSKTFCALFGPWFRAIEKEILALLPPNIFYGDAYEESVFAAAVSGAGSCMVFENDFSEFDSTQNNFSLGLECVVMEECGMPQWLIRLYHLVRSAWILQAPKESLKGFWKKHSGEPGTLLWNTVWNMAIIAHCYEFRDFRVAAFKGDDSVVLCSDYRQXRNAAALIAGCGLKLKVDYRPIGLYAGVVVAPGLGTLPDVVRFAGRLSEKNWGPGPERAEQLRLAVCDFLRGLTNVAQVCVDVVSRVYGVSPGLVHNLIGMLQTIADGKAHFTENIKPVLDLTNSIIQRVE
Experiment: SPR, Biacore 8K, CM5 chip, protein immobilised by amine coupling, […] Langmuir fit
Format: binding
Conditions: protein refolded from inclusion bodies; site (X/RdRp pocket-like cavity) assigned by docking

## C[C@H]1CC[C@@]2(OC1)O[C@H]1C[C@H]3[C@@H]4CC=C5C[C@@H](O[C@@H]6O[C@@H](C)[C@H](O)[C@@H](O)[C@H]6O)C[C@@H](O[C@@H]6O[C@H](C)[C@H](O)[C@H](O)[C@H]6O)[C@]5(C)[C@H]4CC[C@]3(C)[C@H]1[C@@H]2C [liriopesides B]
  Kd: 132 µM
